Assay results: patent US9145392B2, “Imidazole amines as modulators of kinase activity” (Merck Patent GmbH, priority 2011, dated 2015)

Key:
His-AKT (Full Length) = His-AKT (Full Length) (Homo sapiens (Human), UniProt P31749); experiment: AKT enzyme assay; assay type: biochemical; conditions: read-out: IC50 AKT
P70S6K (T412E mutant) = P70S6K (T412E mutant) (Homo sapiens (Human), UniProt P23443, T412E); experiment: P70S6K enzyme assay; assay type: biochemical; conditions: read-out: IC50 p70S6K
How it was run: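 Read-out is the substrate/phosphopeptide ratio from mobility-shift electrophoresis on a LabChip 3000.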

Sequence of P70S6K (T412E mutant) (P23443 whole entry T412E): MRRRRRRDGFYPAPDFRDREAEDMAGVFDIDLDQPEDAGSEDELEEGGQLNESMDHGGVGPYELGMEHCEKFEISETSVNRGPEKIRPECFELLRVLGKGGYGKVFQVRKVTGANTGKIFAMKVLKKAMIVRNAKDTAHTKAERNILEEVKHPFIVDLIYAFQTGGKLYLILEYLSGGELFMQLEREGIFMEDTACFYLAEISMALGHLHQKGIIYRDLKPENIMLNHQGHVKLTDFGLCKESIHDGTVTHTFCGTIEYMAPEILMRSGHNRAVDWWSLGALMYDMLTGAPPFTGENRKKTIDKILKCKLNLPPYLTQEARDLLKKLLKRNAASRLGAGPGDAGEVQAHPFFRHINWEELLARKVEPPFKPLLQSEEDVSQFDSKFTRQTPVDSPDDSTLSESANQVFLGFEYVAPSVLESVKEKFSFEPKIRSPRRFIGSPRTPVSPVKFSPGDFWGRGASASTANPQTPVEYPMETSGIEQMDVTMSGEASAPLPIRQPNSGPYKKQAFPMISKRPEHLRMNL
Sequence of His-AKT (Full Length) (P31749 whole entry): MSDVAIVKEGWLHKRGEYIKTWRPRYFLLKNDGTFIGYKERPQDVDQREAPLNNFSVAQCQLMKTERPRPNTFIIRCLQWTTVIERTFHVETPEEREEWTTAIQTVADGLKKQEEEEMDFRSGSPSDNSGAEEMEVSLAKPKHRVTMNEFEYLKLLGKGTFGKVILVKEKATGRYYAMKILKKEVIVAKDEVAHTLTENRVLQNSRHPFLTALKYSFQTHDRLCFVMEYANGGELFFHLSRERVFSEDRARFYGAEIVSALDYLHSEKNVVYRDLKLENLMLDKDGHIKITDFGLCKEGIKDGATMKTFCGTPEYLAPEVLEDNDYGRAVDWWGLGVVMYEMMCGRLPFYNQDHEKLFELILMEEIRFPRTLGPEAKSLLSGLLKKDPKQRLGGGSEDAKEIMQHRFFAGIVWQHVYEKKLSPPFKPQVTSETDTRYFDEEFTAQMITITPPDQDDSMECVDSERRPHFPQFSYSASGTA

Row | SMILES | IC50 (His-AKT (Full Length)) [nM] | IC50 (P70S6K (T412E mutant)) [nM]
1 | CNCCn1cc(-c2ccc(F)c(C)c2)nc1C1CCN(c2ncnc(N)c2C(N)=O)CC1 [Compound 397, 4-Amino-6-{4-[4-(4-fluoro-3-methyl-phenyl)-1-(2-methylamino-ethyl)-1H-imidazol-2-yl]-piperidin-1-yl}-pyrimidine-5-carboxylic acid amide] | 16 | 2.5
2 | N#Cc1c(N)ncnc1N1CCC(c2nc(-c3ccc(F)c(C(F)(F)F)c3)cn2C[C@@H]2CCN2)CC1 [Compound 146, (S)-4-amino-6-(4-(1-(azetidin-2-ylmethyl)-4-(4-fluoro-3-(trifluoromethyl)phenyl)-1H-imidazol-2-yl)piperidin-1-yl)pyrimidine-5-carbonitrile] | 31 | 3.8
3 | CCc1c(N)ncnc1N1CCC(c2nc(-c3ccc(C(F)(F)F)c(F)c3)cn2CCN2CCCC(F)(F)C2)CC1 [Compound 248] | 1000 | 16
4 | N#Cc1c(N)ncnc1N1CCC(c2nc(-c3cnc(F)c(Cl)c3)cn2CCN2CCC2)CC1 [Compound 205, 4-Amino-6-{4-[1-(2-azetidin-1-yl-ethyl)-4-(5-chloro-6-fluoro-pyridin-3-yl)-1H-imidazol-2-yl]-piperidin-1-yl}-pyrimidine-5-carbonitrile] | 1.3 | 0.8
5 | CC(C)c1cc(-c2cn(CCN3CCC3)c(C3CCN(c4ncnc(N)c4Br)CC3)n2)ccn1 [Compound 181, 6-(4-(1-(2-(azetidin-1-yl)ethyl)-4-(2-isopropylpyridin-4-yl)-1H-imidazol-2-yl)piperidin-1-yl)-5-bromopyrimidin-4-amine] | 0.15 | 0.11
6 | CCc1c(N)ncnc1N1CCC(c2nc(-c3ccc(F)c(C(F)(F)F)c3)cn2CC2CNC2)CC1 [Compound 151, 6-(4-(1-(azetidin-3-ylmethyl)-4-(4-fluoro-3-(trifluoromethyl)phenyl)-1H-imidazol-2-yl)piperidin-1-yl)-5-ethylpyrimidin-4-amine] | 19 | 2.2
7 | COCCN(C)CCn1cc(-c2ccc(F)c(C(F)(F)F)c2)nc1C1CCN(c2ncnc(N)c2C#N)CC1 [Compound 363, 4-Amino-6-[4-(4-(4-fluoro-3-trifluoromethyl-phenyl)-1-{2-[(2-methoxy-ethyl)-methyl-amino]-ethyl}-1H-imidazol-2-yl)-piperidin-1-yl]-pyrimidine-5-carbonitrile] | 26 | 3.4
8 | Nc1ncnc(N2CCC(c3nc(-c4ccc(F)c(C(F)(F)F)c4)cn3CCN3CCC3)CC2)c1-c1cn[nH]c1 [Compound 98, 6-(4-(1-(2-(azetidin-1-yl)ethyl)-4-(4-fluoro-3-(trifluoromethyl)phenyl)-1H-imidazol-2-yl)piperidin-1-yl)-5-(1H-pyrazol-4-yl)pyrimidin-4-amine] | 6.9 | 3
9 | NC(=O)c1c(N)ncnc1N1CCC(c2nc(-c3ccc(F)c(C(F)(F)F)c3)cn2CCNC2CCCC2)CC1 [Compound 387, 4-Amino-6-{4-[1-(2-cyclopentylamino-ethyl)-4-(4-fluoro-3-trifluoromethyl-phenyl)-1H-imidazol-2-yl]-piperidin-1-yl}-pyrimidine-5-carboxylic acid amide] | 8.4 | 1.4
10 | CCN(CCn1cc(-c2ccc(F)c(C)c2)nc1C1CCN(c2ncnc(N)c2C#N)CC1)C(C)C [Compound 327] | 2.8 | 5.2
11 | CCN(CCn1cc(-c2ccc(F)c(C)c2)nc1C1CCN(c2ncnc(N)c2C(N)=O)CC1)C(C)C [Compound 351] | 48 | 27
12 | CN(C)CCn1cc(-c2ccc(F)c(C(F)(F)F)c2)nc1C1CCN(c2ncnc(N)c2CCC2CC2)CC1 [Compound 83, 5-(2-Cyclopropylethyl)-6-(4-(1-(2-(dimethylamino)ethyl)-4-(4-fluoro-3-(trifluoromethyl)phenyl)-1H-imidazol-2-yl)piperidin-1-yl)pyrimidin-4-amine] | 190 | 20
13 | NC(=O)c1c(N)ncnc1N1CCC(c2nc(-c3ccsc3)cn2CCN2CCC2)CC1 [Compound 134, 4-amino-6-(4-(1-(2-(azetidin-1-yl)ethyl)-4-(thiophen-3-yl)-1H-imidazol-2-yl)piperidin-1-yl)pyrimidine-5-carboxamide] | 1900 | 6
14 | CCc1c(N)ncnc1N1CCC(c2nc(-c3cccc(C(F)(F)F)c3)cn2CCN2CCCC2)CC1 [Compound 272] | 9.6 | 3.5
15 | CN(C)CCn1cc(-c2ccc(F)c(C(F)(F)F)c2)nc1C1CCN(c2ncnc(N)c2C(N)=O)CC1 [Compound 38, 4-Amino-6-{4-[1-(2-dimethylamino-ethyl)-4-(4-fluoro-3-trifluoromethyl-phenyl)-1H-imidazol-2-yl]-piperidin-1-yl}-pyrimidine-5-carboxylic acid amide] | 84 | 3.5
16 | Cc1cc(-c2cn(CCN(C)C)c(C3CCN(c4ncnc(N)c4-c4cn[nH]c4)CC3)n2)ccc1F [Compound 163, 6-(4-(1-(2-(dimethylamino)ethyl)-4-(4-fluoro-3-methylphenyl)-1H-imidazol-2-yl)piperidin-1-yl)-5-(1H-pyrazol-4-yl)pyrimidin-4-amine] | 4.8 | 0.73
17 | CCc1c(N)ncnc1N1CCC(c2nc(-c3ccc(F)c(Cl)c3)cn2CCN2CCC2)CC1 [Compound 281] | 9.2 | 3.9
18 | CCc1c(N)ncnc1N1CCC(c2nc(-c3ccc(C(F)(F)F)c(F)c3)cn2CCN2CCCC(F)C2)CC1 (stereo not drawn) [Compound 250] | 210 | 5.7

Row | SMILES | IC50 (His-AKT (Full Length)) [nM] | IC50 (P70S6K (T412E mutant)) [nM]
19 | CCN(C)Cc1c(N)ncnc1N1CCC(c2nc(-c3ccc(F)c(C(F)(F)F)c3)cn2CCN(C)C)CC1 [Compound 95, 6-(4-(1-(2-(dimethylamino)ethyl)-4-(4-fluoro-3-(trifluoromethyl)phenyl)-1H-imidazol-2-yl)piperidin-1-yl)-5-((ethyl(methyl)amino)methyl)pyrimidin-4-amine] | 520 | 47
20 | CC(C)(C)c1cc(-c2cn(CCN3CCC3)c(C3CCN(c4ncnc(N)c4C(N)=O)CC3)n2)ccn1 [Compound 343] | 170 | 5.5
21 | CCc1c(N)ncnc1N1CCC(c2nc(-c3ccc(F)c(C(F)(F)F)c3)cn2CCN2CC(F)C2)CC1 [Compound 92, 5-ethyl-6-(4-(4-(4-fluoro-3-(trifluoromethyl)phenyl)-1-(2-(3-fluoroazetidin-1-yl)ethyl)-1H-imidazol-2-yl)piperidin-1-yl)pyrimidin-4-amine] | 71 | 4.2
22 | CN(C)CCn1cc(-c2ccc(F)c(C(F)(F)F)c2)nc1C1CCN(c2ncnc(N)c2-c2ccc(C(=O)O)cc2)CC1 [Compound 89] | 33 | 7.3
23 | CCc1c(N)ncnc1N1CCC(c2nc(-c3cccc(Cl)c3)cn2CCN2CCCC2)CC1 [Compound 274] | 12 | 1.5
24 | CCc1c(N)ncnc1N1CCC(c2nc(-c3ccc(F)c(F)c3)cn2CCN2CCOCC2)CC1 [Compound 196, 6-{4-[4-(3,4-Difluoro-phenyl)-1-(2-morpholin-4-yl-ethyl)-1H-imidazol-2-yl]-piperidin-1-yl}-5-ethyl-pyrimidin-4-ylamine] | 370 | 5.5
25 | CCc1c(N)ncnc1N1CCC(c2nc(-c3ccc(F)c(C)c3)cn2CC2CN(C)C2)CC1 [Compound 400, 5-Ethyl-6-{4-[4-(4-fluoro-3-methyl-phenyl)-1-(1-methyl-azetidin-3-ylmethyl)-1H-imidazol-2-yl]-piperidin-1-yl}-pyrimidin-4-ylamine] | 0.3 | 0.06
26 | CCc1c(N)ncnc1N1CCC(c2nc(-c3ccc(C(F)(F)F)cc3)cn2CCN2CCCC2)CC1 [Compound 271] | 180 | 12
27 | CCc1c(N)ncnc1N1CCC(c2nc(-c3ccc(F)c(C)c3)cn2CCN(CC)C(C)C)CC1 [Compound 300] | 8.9 | 3.1
28 | Nc1ncnc(N2CCC(c3nc(-c4cccc(F)c4)cn3CCN3CCCC3)CC2)c1C1CCC1 [Compound 257] | 20 | 4
29 | Nc1ncnc(N2CCC(c3nc(-c4ccc(C(F)(F)F)c(F)c4)cn3CCN3CCC3)CC2)c1C1CCC1 [Compound 280] | 7.3 | 6
30 | C=Cc1c(N)ncnc1N1CCC(c2nc(-c3ccc(F)c(C(F)(F)F)c3)cn2CCN2CCC2)CC1 [Compound 220] | 4.2 | 2.6
31 | NC(=O)c1c(N)ncnc1N1CCC(c2nc(-c3cc[nH]c(=O)c3)cn2CCN2CCC2)CC1 [Compound 339] | 5800 | 2700
32 | CN(C)CCn1cc(-c2ccc(F)c(C(F)(F)F)c2)nc1C1CCN(c2ncnc(N)c2C#N)CC1 [Compound 8, 4-Amino-6-{4-[1-(2-dimethylamino-ethyl)-4-(4-fluoro-3-trifluoromethyl-phenyl)-1H-imidazol-2-yl]-piperidin-1-yl}-pyrimidine-5-carbonitrile] | 9.1 | 1.8
33 | CNCCn1cc(-c2ccnc(C(F)(F)F)c2)nc1C1CCN(c2ncnc(N)c2C2C=NOC2)CC1 (stereo not drawn) [Compound 170, 5-(4,5-dihydroisoxazol-4-yl)-6-(4-(1-(2-(methylamino)ethyl)-4-(2-(trifluoromethyl)pyridin-4-yl)-1H-imidazol-2-yl)piperidin-1-yl)pyrimidin-4-amine] | 120 | 170
34 | CCc1c(N)ncnc1N1CCC(c2nc(-c3ccc(F)c(C(F)(F)F)c3)cn2CCN2CCC2)CC1 [Compound 230] | 4.1 | 2.1
35 | COc1ccc(-c2cn(CCN3CCC3)c(C3CCN(c4ncnc(N)c4C(N)=O)CC3)n2)cc1Cl [Compound 347] | 990 | 87
36 | Cc1cc(-c2cn(CCNCC(C)C)c(C3CCN(c4ncnc(N)c4C#N)CC3)n2)ccc1F [Compound 390, 4-Amino-6-{4-[4-(4-fluoro-3-methyl-phenyl)-1-(2-isobutylamino-ethyl)-1H-imidazol-2-yl]-piperidin-1-yl}-pyrimidine-5-carbonitrile] | 1.4 | 1.9
